Results: PMC8400955 (Pharmaceuticals, 2021)
“Also recorded” adds a separate entry of the source. Read-outs that look alike come from different tables or passages of the source.

Experiments:
[1] = Single-dose PK and bioavailability of ZB716 in rats; format: in vivo; conditions: Sprague Dawley, rat, plasma; for bioavailability: PO 6 mg/kg/day vs IV 2 mg/kg/day
[2] = Plasma protein binding by equilibrium dialysis, rat; format: in vitro ADME; conditions: plasma (EDTA-K2 as anticoagulant)
Experimental: (§1) The in vitro binding of ZB716 to plasma proteins was determined by equilibrium dialysis technique in mouse, rat, dog, monkey, and human plasma (EDTA-K2 as anticoagulant), over the concentration range of 0.1–10 μM. The free concentration of ZB716 was below the lower limit of quantitation at 0.1, 1, and 10 μM in human, monkey, dog, rat, and mouse plasma.
(§2) The equilibrium dialysis method was used to investigate the in vitro binding of ZB716 to human, monkey, dog, rat, and mouse plasma proteins. The dialysis phosphate buffer solution (100 mM, pH 7.4) and plasma samples containing 0.1, 1, and 10 μM of ZB716 were added to separate chambers of dialysis wells of the HTDialysis device. The dialysis plate was placed in an incubator at 37 °C with 5% CO2 at approximately 100 rpm for 6 h. After incubation, the seal was removed, and 50 μL each of post-dialysis samples was pipetted from both the buffer and plasma chambers into fresh 96-well plates. The samples were analyzed via UPLC–MS/MS. The bound fraction, unbound fraction, recovery (%), and remaining (%) were calculated by Equations (2)–(5):%Unbound = (Conc.buffer chamber/Conc.plasma chamber) × 100(2) %Bound = 100% − %Unbound (3) %Recovery = (Conc.buffer chamber + Conc.plasma chamber)/Conc.Total sample × 100 (4) %Remaining = Conc.6h/Conc.0h × 100 (5)

rat plasma proteins = assay: as above; format: in vitro ADME; conditions: for Remaining: 6 h
Experimental: as §1, §2

CYP2B6 = molecular target: T1, CYP2B6 (Homo sapiens, UniProt P20813); assay: CYP inhibition in human liver microsomes, CYP2B6; format: in vitro ADME; conditions: HLM, marker substrate Bupropion
T1 sequence (P20813 1-491): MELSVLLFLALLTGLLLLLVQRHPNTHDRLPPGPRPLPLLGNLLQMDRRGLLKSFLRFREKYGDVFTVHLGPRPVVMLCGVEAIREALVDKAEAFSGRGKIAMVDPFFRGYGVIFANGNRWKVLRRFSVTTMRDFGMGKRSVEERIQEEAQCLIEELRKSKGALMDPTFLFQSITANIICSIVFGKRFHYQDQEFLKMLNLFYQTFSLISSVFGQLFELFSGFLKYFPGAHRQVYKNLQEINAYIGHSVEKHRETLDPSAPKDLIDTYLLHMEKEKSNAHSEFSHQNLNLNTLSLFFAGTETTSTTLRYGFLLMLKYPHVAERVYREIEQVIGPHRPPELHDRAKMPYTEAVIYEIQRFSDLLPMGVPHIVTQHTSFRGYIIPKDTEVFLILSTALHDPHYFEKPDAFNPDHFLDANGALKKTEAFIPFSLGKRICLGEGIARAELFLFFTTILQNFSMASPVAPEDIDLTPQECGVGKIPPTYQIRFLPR
Experimental: . The inhibition of CYP2B6 and 3A4 (when midazolam was used as the substrate) by ZB716 was not observed. The inhibitory potential of ZB716 on human CYP enzyme activities appears relatively low.
The final concentrations of ZB716 in the incubation system were 0, 0.05, 0.15, 0.5, 1.5, 5, and 15 µM (final organic solvent concentration ≤ 1%). […] . […] The concentrations of the isoform-specific metabolites derived from marker substrates were measured by UPLC–MS/MS. The IC50 values were calculated from the percentages of the rate of the metabolite formation relative to non-inhibited controls vs. the concentrations of ZB716 or positive control inhibitors. All incubations were performed in triplicate. The mean of the enzyme activity (% of non-inhibited control) for each concentration was plotted against the log inhibitor concentration, and fitted to an IC50 curve.

CYP2C9 = CYP2C9 (Homo sapiens, UniProt P11712); assay: CYP phenotyping, recombinant CYP2C9
Chain of CYP2C9 (P11712 whole entry): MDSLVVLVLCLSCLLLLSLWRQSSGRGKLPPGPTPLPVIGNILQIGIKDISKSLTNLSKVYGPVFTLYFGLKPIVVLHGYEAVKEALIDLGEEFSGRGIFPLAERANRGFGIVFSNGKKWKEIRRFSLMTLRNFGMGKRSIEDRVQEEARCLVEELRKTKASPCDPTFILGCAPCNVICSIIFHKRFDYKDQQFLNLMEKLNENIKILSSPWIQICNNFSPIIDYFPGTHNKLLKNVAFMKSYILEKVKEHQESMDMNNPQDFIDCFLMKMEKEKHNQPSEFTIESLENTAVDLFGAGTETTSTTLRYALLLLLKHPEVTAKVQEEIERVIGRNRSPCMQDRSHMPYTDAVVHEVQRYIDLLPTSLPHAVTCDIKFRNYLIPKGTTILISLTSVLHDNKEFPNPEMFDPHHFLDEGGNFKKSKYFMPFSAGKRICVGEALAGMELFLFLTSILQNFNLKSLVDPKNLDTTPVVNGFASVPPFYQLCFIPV
Experimental: Bactosomes prepared from E. coli that heterologously expressed individual human CYP isoforms together with human CYP reductase were obtained from CYPEX LTD (Scotland, UK), and stored at −80 °C prior to use. […] Timepoints were taken at 0, 5, 10, 15, 20, and 30 min. Substrate disappearance was used to calculate intrinsic clearance (Clint) and half-life (t1/2). All incubations were performed in triplicate. […] The chemical inhibitors for CYP1A2, 2A6, 2B6, 2C8, 2C9, 2C19, 2D6, and 3A4 were furafylline, tranylcypromine, ticlopidine, montelukast, sulfaphenazole, N-3-benzylnirvanol, quinidine, and ketoconazole, respectively. Timepoints were collected at 0, 15, 30, 45, and 60 min, and the remaining percentage of the parent drug at each timepoint was calculated (the calculation details are available in the Supplementary Materials). All incubations were performed in triplicate.
1.3.1 Intrinsic Clearance (Heterologously Expressed Human Cytochrome P450) All calculations were carried out using Microsoft Excel. The slope, k, was determined by linear regression of the natural logarithm of percent parent disappearance vs. incubation time curve. Peak areas for test article and internal standard were determined from extracted ion chromatograms. The peak area ratio was used to calculated for the results.
The half-life value (t1/2 rCYPi) was determined from the slope value: […]

[3] = female, single dose, IV 2 mg/kg/day, F
[4] = female, single dose, PO 6 mg/kg/day, F
[5] = female, single dose, PO 30 mg/kg/day, F
[6] = female, single dose, PO 100 mg/kg/day, F
[7] = female, single dose, PO 400 mg/kg/day, F
[8] = male, single dose, IV 2 mg/kg/day, M
[9] = male, single dose, PO 6 mg/kg/day, M
[10] = male, single dose, PO 30 mg/kg/day, M
[11] = male, single dose, PO 100 mg/kg/day, M
[12] = male, single dose, PO 400 mg/kg/day, M

For C[C@]12CC[C@@H]3c4ccc(B(O)O)cc4C[C@@H](CCCCCCCCC[S+]([O-])CCCC(F)(F)C(F)(F)F)[C@H]3[C@@H]1CC[C@@H]2O (stereo partly drawn) [ZB716, fulvestrant-3-boronic acid], the Tmax ([1]; both sexes, single oral administration, mostly, post-dose, read-out: Tmax) was 30 to 120 min, the bioavailability ([1]; female, F) was 5.98% and the AUC(0-t) [1, 3] was 6440 ng·h/mL. It also gave a Cmax [1, 3] of 4530 ng/mL, a Tmax ([1]; female, single dose, IV 2 mg/kg/day, F, read-out: Tmax (median)) of 5 min and an AUC(0-t) [1, 4] of 1160 ng·h/mL. For the same molecule, the Cmax [1, 4] was 347 ng/mL, the Tmax ([1]; female, single dose, PO 6 mg/kg/day, F, read-out: Tmax (median)) was 30 min and the AUC(0-t) [1, 5] was 15700 ng·h/mL. The Cmax [1, 5] was 3520 ng/mL, the Tmax ([1]; female, single dose, PO 30 mg/kg/day, F, read-out: Tmax (median)) was 60 min and the AUC(0-t) [1, 6] was 30500 ng·h/mL. It also gave a Cmax [1, 6] of 3590 ng/mL, a Tmax ([1]; female, single dose, PO 100 mg/kg/day, F, read-out: Tmax (median)) of 30 min and an AUC(0-t) [1, 7] of 55600 ng·h/mL. It also gave a Cmax [1, 7] of 4310 ng/mL, a Tmax ([1]; female, single dose, PO 400 mg/kg/day, F, read-out: Tmax (median)) of 60 min and a bioavailability ([1]; male, M) of 6.36%. For the same molecule, the AUC(0-t) [1, 8] was 4910 ng·h/mL, the Cmax [1, 8] was 5370 ng/mL and the Tmax ([1]; male, single dose, IV 2 mg/kg/day, M, read-out: Tmax (median)) was 5 min. The AUC(0-t) [1, 9] was 936 ng·h/mL, the Cmax [1, 9] was 321 ng/mL and the Tmax ([1]; male, single dose, PO 6 mg/kg/day, M, read-out: Tmax (median)) was 30 min. It also gave an AUC(0-t) [1, 10] of 5410 ng·h/mL, a Cmax [1, 10] of 1720 ng/mL and a Tmax ([1]; male, single dose, PO 30 mg/kg/day, M, read-out: Tmax (median)) of 120 min. For the same molecule, the AUC(0-t) [1, 11] was 12500 ng·h/mL, the Cmax [1, 11] was 3010 ng/mL and the Tmax ([1]; male, single dose, PO 100 mg/kg/day, M, read-out: Tmax (median)) was 30 min. For the same molecule, the AUC(0-t) [1, 12] was 32600 ng·h/mL, the Cmax [1, 12] was 2860 ng/mL and the Tmax ([1]; male, single dose, PO 400 mg/kg/day, M, read-out: Tmax (median)) was 30 min. The recovery at 6 h, 0.1 μM ([2]; pH 7.4, 0.1 μM) was under 94.4%, the recovery at 6 h, 1 μM ([2]; pH 7.4, 1 μM) was under 94.9% and the recovery at 6 h, 10 μM ([2]; pH 7.4, 10 μM) was under 82.1%. For the same molecule, the Bound (rat plasma proteins; 0.1 μM) was over 97.7%, the Unbound (rat plasma proteins; 0.1 μM) was under 2.35% and the Remaining (rat plasma proteins; 0.1 μM) was 83.9 ± 8.2%. For the same molecule, the Bound (rat plasma proteins; 1 μM) was over 99.8%, the Unbound (rat plasma proteins; 1 μM) was under 0.216% and the Remaining (rat plasma proteins; 1 μM) was 91.1 ± 2.1%. The Bound (rat plasma proteins; 10 μM) was over 99.97%, the Unbound (rat plasma proteins; 10 μM) was under 0.0281% and the Remaining (rat plasma proteins; 10 μM) was 84.7 ± 2.0%. For the same molecule, the IC50 (CYP2B6) was “not observed; also recorded: No Inhibition”, the half-life at 2 µM (CYP2C9; human) was 18.6 ± 0.4 min and the Clint (CYP2C9; recombinant CYP2C9, 2 µM ZB716) was 0.746 ± 0.015 µL/min/pmol CYP.
